Reference: patent US20250332147A1, “Methods of Treating Multiple Sclerosis” (Vanda Pharmaceuticals Inc., priority 2021, published 2025)

Columns and labels:
[1] = test system: patients with relapsing multiple sclerosis (RMS); experiment: OPTIMUM phase 3 study (NCT02425644): systemic corticosteroid (SCS) use for treatment of relapse, ponesimod 20 mg vs teriflunomide 14 mg; assay type: in vivo, human; details: for proportion of patients who received ≥1 SCS therapy for treatment of relapse / least squares mean of accumulated steroid dose (prednisone equivalent doses) for treatment of relapse: full analysis set; for proportion of patients who received ≥1 SCS therapy for treatment of relapse: between study treatment start and EOS, PON 20 mg vs TER 14 mg, P<0.0001
Procedure: Subjects were evaluated according to the treatment they were randomized to. • Primary efficacy variable/primary timepoint: The primary endpoint was annualized relapse rate (ARR) up to the end of study (EOS) defined as the number of confirmed relapses per subject-year. All available data up to EOS, regardless of treatment discontinuation was included (ITT approach). Co-Administration of Ponesimod with Corticosteroids
OPTIMUM was a phase 3, double-blind, randomized clinical trial that evaluated the efficacy, safety, and tolerability of PON (20 mg) versus TER (14 mg) in patients with RMS.
Patients with RMS aged 18 to 55 years with a relapsing course (i.e., RMS or secondary progressive MS with superimposed relapses), an Expanded Disability Status Scale (EDSS) score of 0-5.5, and recent clinical or magnetic resonance imaging activity were enrolled.
Patients were excluded from the primary analysis if they received treatment with SCS, unless it was for a multiple sclerosis (MS) relapse or short-term treatment of pulmonary conditions.
In this analysis, the proportions of patients in each treatment group who received concomitant treatment with ≥1 SCS to treat MS relapse between the start of study treatment and end of study (EOS) were compared. In addition, the mean accumulated steroid dose (prednisone equivalent doses in mg) administered to treat relapse between start of study treatment and EOS and between end of treatment (EOT) plus follow-up time was assessed.
Data are shown for analyses of the full analysis set and analyses stratified by baseline EDSS score (baseline EDSS score≤3.5 versus >3.5), prior MS treatment (disease modifying treatment [DMT] within the past 2 years versus no DMT within the past 2 years), or sex (male versus female).
The proportion of patients who received ≥1 SCS therapy for treatment of relapse is provided by treatment group; group differences were examined using Cochran-Mantel Haenszel (CMH) test and stratified by baseline EDSS and prior treatment with DMT.
The between-group difference for the mean accumulated steroid dose for treatment of relapse was evaluated using analysis of covariance models with accumulated steroid dose as the dependent variable, treatment as factor, and EDSS baseline group, and prior treatment with disease-modifying therapy within 2 years prior to randomization as covariates. EDSS baseline group was removed from the model for analyses stratified by baseline EDSS score.

[2] = test system: peripheral blood lymphocyte count; details: cited from earlier work
[3] = in vivo; cited from earlier work
[4] = from start of study treatment to EOS, P=0.0005
[5] = from start of study treatment to EOT+7 days of follow up, P=0.0007

Row | Compound | reduction of annualized relapse rate (ARR) ([1]; PON 20 mg vs teriflunomide (TER) 14 mg, patients with RMS) | proportion of patients who received ≥1 SCS therapy for treatment of relapse [1] [%] | least squares mean of accumulated steroid dose (prednisone equivalent doses) for treatment of relapse [1, 4] [mg] | least squares mean of accumulated steroid dose (prednisone equivalent doses) for treatment of relapse [1, 5] [mg] | proportion of patients who received ≥1 SCS therapy, stratified by baseline disability ([1]; only among patients with baseline EDSS≤3.5, compared with teriflunomide group) | peripheral blood lymphocyte count ([2]; blocking the egress of lymphocytes from lymphoid organs) | monocyte, natural killer (NK) cell and neutrophil counts ([2]; in vivo) | elimination from plasma [3]
1 | CCC/N=C1\S/C(=C\c2ccc(OC[C@H](O)CO)c(Cl)c2)C(=O)N1c1ccccc1C [PON, (R)-5-[3-chloro-4-(2,3-dihydroxy-propoxy)-benz[Z]ylidene]-2-([Z]-propylimino)-3-o-tolyl-thiazolidin-4-one] | superior efficacy | 29.1 | 3207.1 | 2977.1 | significantly smaller proportion | rapid, dose-dependent, and reversible reduction | not reduced | 
2 | C/C(O)=C(\C#N)C(=O)Nc1ccc(C(F)(F)F)cc1 [TER] |  | 40.10 | 4257.2 | 3957.4 |  |  |  | eliminated slowly
